For 12 compounds, AC50, EC50 and IC50 results are on record in ChEMBL document CHEMBL1201862, “PubChem BioAssay data set” (2004).

Active and inactive are the calls of the source. Where only a bound is given, the exact number is not on record here.

The target of experiment [1] is T1, CAAX prenyl protease 2 (Saccharomyces cerevisiae S288c, UniProt Q03530).
T1 sequence (Q03530 whole entry): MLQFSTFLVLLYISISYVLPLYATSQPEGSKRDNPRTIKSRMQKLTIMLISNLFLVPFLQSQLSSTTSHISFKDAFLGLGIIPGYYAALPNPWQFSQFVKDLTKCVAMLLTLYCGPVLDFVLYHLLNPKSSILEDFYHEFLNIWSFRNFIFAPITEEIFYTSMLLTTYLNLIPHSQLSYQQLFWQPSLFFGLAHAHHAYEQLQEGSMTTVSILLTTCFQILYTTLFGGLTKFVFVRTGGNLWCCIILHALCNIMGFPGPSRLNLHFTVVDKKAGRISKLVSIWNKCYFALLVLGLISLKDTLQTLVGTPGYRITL
Type of experiment: biochemical.

Another experiment concerns the target Troponin, cardiac muscle (Homo sapiens, UniProt P19429+P45379+P63316). Kind of experiment: Fluorescence-based biochemical high throughput dose response assay for activators of the calcium sensitivity of cardiac Regulated Thin Filaments (RTF). [Related pubchem assays (depositor defined):AID493008, AID493018, AID504382, AID504383]. Type of experiment: protein-complex assay.

In experiment [2] the target is T2, CAAX prenyl protease 2 (Homo sapiens, UniProt Q9Y256).
T2 sequence (Q9Y256 whole entry): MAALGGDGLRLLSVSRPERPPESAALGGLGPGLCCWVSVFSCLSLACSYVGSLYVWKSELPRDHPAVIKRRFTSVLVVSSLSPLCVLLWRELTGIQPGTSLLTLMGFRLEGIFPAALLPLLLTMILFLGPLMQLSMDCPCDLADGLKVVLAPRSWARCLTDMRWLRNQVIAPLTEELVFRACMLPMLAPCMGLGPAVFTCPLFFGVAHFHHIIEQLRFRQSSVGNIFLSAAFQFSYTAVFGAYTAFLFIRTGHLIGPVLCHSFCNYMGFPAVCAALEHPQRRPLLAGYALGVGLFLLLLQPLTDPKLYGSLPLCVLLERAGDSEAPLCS
Put plainly: inhibition of Ras-converting CAAX protease Rce1 – biochemical, yeast membranes, quenched-peptide fluorescence, cherry-pick, dose response (AID 588849).

Experiment [3] relates to Streptococcus sp. 'group A'. Kind of experiment: Streptococcus pyogenes SK(-)GAS viability under kanamycin – luminescence, BacTiterGlo, confirmation, counter-screen for streptokinase expression inhibitor project, dose response (AID 1900). The class given is functional, organism-based. A general note: Counterscreens check selectivity or assay interference.
In the next experiment the target is T3, Streptokinase A (Streptococcus pyogenes serotype M1, UniProt P10520).
T3 sequence (P10520 whole entry): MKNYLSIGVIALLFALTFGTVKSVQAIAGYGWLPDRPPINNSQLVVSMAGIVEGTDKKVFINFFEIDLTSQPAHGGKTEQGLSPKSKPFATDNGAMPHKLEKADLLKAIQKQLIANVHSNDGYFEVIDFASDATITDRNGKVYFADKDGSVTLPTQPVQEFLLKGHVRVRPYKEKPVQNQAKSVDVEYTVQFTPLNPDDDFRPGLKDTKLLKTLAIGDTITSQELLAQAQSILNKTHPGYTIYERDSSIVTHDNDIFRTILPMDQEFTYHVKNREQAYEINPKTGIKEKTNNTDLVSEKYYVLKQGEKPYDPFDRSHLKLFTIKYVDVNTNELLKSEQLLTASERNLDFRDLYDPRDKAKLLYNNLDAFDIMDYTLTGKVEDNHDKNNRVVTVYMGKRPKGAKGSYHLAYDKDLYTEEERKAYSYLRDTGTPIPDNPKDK
Put plainly: viability-normalized secreted streptokinase activity reduction – plasminogen activation absorbance, OD405, dose response (AID 1914).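 Also: secreted streptokinase activity via plasminogen activation per viability signal from cell pellet.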 Type of experiment: functional, Streptococcus pyogenes M1 GAS.

The next experiment deals with Streptococcus. Put plainly: GAS UMAA2166 growth inhibition – luminescence, BacTiterGlo, counter-screen for streptokinase expression inhibitor project, dose response (AID 1915).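 Also: potency for reduction of bacterial viability or growth.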 Type of experiment: functional, organism-based.
For experiment [4], the target named is T4, Nucleotide-binding oligomerization domain-containing protein 1 (Homo sapiens, UniProt Q9Y239).
T4 sequence (Q9Y239 whole entry): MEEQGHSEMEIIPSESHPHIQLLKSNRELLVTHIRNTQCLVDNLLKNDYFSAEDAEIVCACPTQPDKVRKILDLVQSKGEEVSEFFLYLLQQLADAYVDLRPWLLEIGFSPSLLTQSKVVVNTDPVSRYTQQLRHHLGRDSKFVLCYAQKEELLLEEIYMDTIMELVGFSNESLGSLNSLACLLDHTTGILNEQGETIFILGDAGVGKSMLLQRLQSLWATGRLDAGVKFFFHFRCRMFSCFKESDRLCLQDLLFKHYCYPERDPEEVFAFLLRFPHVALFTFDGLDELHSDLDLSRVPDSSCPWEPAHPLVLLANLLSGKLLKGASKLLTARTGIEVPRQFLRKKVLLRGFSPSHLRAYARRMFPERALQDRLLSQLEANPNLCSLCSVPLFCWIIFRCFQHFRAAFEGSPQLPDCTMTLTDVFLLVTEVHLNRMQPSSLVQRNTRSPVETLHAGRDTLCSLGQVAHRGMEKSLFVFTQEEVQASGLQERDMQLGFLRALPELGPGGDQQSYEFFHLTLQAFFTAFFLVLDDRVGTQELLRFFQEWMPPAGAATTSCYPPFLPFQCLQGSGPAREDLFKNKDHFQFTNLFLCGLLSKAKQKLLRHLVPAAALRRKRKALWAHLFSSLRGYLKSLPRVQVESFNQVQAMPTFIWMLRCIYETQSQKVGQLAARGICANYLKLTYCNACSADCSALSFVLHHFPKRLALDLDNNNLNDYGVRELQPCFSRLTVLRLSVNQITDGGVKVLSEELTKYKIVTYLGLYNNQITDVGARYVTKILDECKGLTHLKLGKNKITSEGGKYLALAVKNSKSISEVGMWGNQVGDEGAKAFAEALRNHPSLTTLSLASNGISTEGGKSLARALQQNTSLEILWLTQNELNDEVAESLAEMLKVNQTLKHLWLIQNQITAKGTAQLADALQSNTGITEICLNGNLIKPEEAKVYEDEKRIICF
Put plainly: blockers of NOD1 pathway activity – revised, SAR follow-up (AID 2333). Type of experiment: functional.

The target in a further experiment is Tumor necrosis factor (Homo sapiens, UniProt P01375). Kind of experiment: analog potency on TNFa NF-kB signaling – cell-based, revised, SAR follow-up (AID 2337). The class given is functional.
The subject of experiment [5] is HEK293. Put plainly: cells. Particulars: Homo sapiens.
Experiment [6] relates to HEK293. Put plainly: cells. Type of experiment: functional, cell-based. Particulars: Homo sapiens.
The test system of experiment [7] is HEK293. Put plainly: cells. The class given is functional, cell-based. Particulars: Homo sapiens. This is another data set of the same source.
Experiment [8] deals with HEK293. Put plainly: inhibition of NOD1-driven NF-kB reporter – cell-based, luminescence, uHTS, primary screen (AID 1578). The class given is functional. Particulars: Homo sapiens.
The test system of experiment [9] is HEK293. Put plainly: NOD2 signaling inhibitors in MDP-stimulated cells, cell-based, uHTS, luminescence (AID 2001). Type of experiment: functional. Particulars: Homo sapiens.
The subject of a further experiment is INS1. Kind of experiment: INS-1E survival protection against cytokine death – cell-based, luminescence, retest, dose response (AID 449756).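 Also: cell death triggered by IL-1 beta plus TNF-alpha plus IFN-gamma mixture; protective hits raise ATP signal compared with cytokine alone wells.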 The class given is functional. Particulars: Rattus norvegicus.
A short description of experiment [10]: HEK-293T cell viability reduction – luminescence, B-cell screen hits, cytotoxicity control for BCR NF-kB inhibitor project, dose response (AID 489021).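 Also: HEK-293T cells carrying an NF-kB luciferase reporter; cells exposed to compound for about 14 hours before viability readout.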 Type of experiment: functional, cell-based.
In experiment [11] the target is T5, COUP transcription factor 2 (Homo sapiens, UniProt P24468).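 Also: HEK293 cells transiently cotransfected with COUP-TFII expression vector and reporter; luciferase reporter luminescence driven by COUP-TFII from the pX2-168 reporter plasmid.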
T5 sequence (P24468 whole entry): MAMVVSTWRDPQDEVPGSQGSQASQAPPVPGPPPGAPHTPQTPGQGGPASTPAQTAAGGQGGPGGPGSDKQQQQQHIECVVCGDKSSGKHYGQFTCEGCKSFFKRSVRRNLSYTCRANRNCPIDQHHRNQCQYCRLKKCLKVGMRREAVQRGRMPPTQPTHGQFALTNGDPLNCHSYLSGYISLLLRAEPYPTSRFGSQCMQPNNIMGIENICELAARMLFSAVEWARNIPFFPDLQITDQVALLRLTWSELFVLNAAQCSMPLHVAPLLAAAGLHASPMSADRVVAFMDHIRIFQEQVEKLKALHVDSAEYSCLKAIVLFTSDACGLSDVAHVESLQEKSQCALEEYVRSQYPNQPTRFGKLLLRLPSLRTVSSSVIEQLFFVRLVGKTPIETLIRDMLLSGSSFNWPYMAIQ
Kind of experiment: Luminescence-based cell-based high throughput dose response assay to identify inhibitors of COUP-TFII (NR2F2). Type of experiment: functional.

The target in experiment [12] is T6, Short transient receptor potential channel 4 (Mus musculus, UniProt Q9QUQ5).
T6 sequence (Q9QUQ5 whole entry): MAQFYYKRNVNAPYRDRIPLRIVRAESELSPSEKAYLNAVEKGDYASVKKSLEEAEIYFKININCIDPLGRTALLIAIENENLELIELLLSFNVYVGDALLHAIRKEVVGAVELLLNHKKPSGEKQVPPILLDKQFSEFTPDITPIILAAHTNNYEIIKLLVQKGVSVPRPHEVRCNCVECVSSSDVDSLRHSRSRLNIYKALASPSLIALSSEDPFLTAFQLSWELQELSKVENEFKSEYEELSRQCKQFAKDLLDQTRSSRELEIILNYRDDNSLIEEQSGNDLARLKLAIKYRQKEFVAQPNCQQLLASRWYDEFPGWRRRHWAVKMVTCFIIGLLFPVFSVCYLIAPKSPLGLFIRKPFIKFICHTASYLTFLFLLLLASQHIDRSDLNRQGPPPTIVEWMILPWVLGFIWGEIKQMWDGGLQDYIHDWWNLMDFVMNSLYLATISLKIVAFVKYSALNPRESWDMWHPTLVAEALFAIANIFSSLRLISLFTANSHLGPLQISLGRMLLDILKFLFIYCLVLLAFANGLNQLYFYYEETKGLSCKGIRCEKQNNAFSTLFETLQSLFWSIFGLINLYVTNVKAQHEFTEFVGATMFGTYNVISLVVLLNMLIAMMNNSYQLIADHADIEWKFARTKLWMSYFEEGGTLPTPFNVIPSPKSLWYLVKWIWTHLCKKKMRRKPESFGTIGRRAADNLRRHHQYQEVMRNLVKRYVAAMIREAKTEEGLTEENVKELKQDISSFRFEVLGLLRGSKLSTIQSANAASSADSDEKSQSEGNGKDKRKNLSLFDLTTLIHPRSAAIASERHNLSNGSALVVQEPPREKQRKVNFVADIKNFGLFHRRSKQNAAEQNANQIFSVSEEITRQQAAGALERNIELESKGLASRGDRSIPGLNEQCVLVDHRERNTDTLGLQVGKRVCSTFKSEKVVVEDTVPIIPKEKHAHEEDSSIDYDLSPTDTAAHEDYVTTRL
Put plainly: block of DAMGO-driven TRPC4 calcium entry – cell-based, HEK293 TRPC4/mu-opioid, Fluo-4 calcium, dose response (AID 434942).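 Also: potency of inhibitors blocking the TRPC4 calcium response.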 The class given is functional.

In experiment [13] the target is T6, Short transient receptor potential channel 4. Put plainly: calcium entry via TRPC4 opening agents – cell-based, HEK293 TRPC4/mu-opioid, Fluo-4 calcium, dose response (AID 434937). Type of experiment: functional.

Tumor necrosis factor, sequence (P01375 whole entry): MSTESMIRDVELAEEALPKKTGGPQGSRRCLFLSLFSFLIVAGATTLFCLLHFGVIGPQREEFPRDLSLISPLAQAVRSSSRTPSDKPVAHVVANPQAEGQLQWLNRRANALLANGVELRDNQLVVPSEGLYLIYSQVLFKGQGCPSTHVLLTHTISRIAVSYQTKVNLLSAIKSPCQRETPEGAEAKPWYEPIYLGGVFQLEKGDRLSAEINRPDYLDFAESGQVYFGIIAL

Consider `C=C(C)CSc1nc2sc3c(c2c(=O)n1-c1ccc(OC)cc1)CCN(C)C3`, for which the half-maximal activity concentration (AC50) (in general, the midpoint of the concentration-response curve, whichever way the signal moves) at CAAX prenyl protease 2 [1] is 3.45 µM (active).
`Cn1cnnc1Sc1nc2ccccc2nc1NS(=O)(=O)c1ccccc1`: the EC50 – broadly, the midpoint of the concentration-response curve – on Troponin, cardiac muscle is > 71.5 µM (inactive).
As for `CCOc1ccc(-c2nc(CCl)cs2)cc1OC`, the AC50 at CAAX prenyl protease 2 [2] was > 100 µM (inactive).
For `COc1ccc(-n2nc(C(=O)NCC(=O)N3CCC(C)CC3)c3ccccc3c2=O)cc1`, at CAAX prenyl protease 2 [1], the half-maximal activity concentration (AC50) was 3.87 µM (active).
Consider `COc1ccc(-c2oc3ncn(Cc4ccco4)c(=N)c3c2-c2ccc(OC)cc2)cc1`, for which the AC50 at CAAX prenyl protease 2 [2] is 79.2 µM (active). Also, the concentration for a half-maximal effect (EC50) was 6.01 µM (active) in experiment [3], 14.8 µM (active) at Streptokinase A and > 150 µM (not active) with Streptococcus.
In the case of `CCC(=O)N1c2ccc(S(=O)(=O)N3CCN(c4ccc(C(C)=O)cc4)CC3)cc2CC1C` (stereo not drawn), the values for the IC50 (in experiment [4]; at Tumor necrosis factor; in the experiment with HEK293 [5]) were 2 µM (active), 1.63 µM (active) and 14.7 µM (active), respectively.
The like results for `COc1ccc(-c2nc(CN3CCN(c4ncnc5ccccc45)CC3)c(C)o2)cc1` were, in that order, 3.13 µM (active), 4.08 µM (active) and 11.9 µM (active).
With `Cc1cccn2c(=O)c(/C=C3\SC(=S)N(CC(C)C)C3=O)c(NCCCOC(C)C)nc12`, the EC50 on Troponin, cardiac muscle was 0.287 µM (active).
For `COc1ccc(NS(=O)(=O)c2ccc(-c3coc(C)n3)cc2)cc1OC`, the IC50 (usually the point on the concentration scale where inhibition reaches its midpoint) in the experiment on HEK293 [6] was 4.75 µM (active); in the experiment on HEK293 [7], > 20 µM (inactive); with HEK293 [9] it was 6.82 µM (active); in [10], > 80 µM (inactive); in [11], 5.85 µM (active). Besides, the EC50 with HEK293 [8] is 1.1 µM (active). In addition, the AC50 in the experiment on INS1 was 2.88 µM (active).
Consider `CS(=O)(=O)Cc1ccc(C(=O)N(CCc2ccccc2)Cc2ccccc2)cc1`, for which the half-maximal activity concentration (AC50) at CAAX prenyl protease 2 [2] was 35.8 µM (active).
On to `O=C(NC(=S)NNC(=O)c1ccco1)c1ccc(Br)cc1`, for which the concentration giving a half-maximal response (EC50) is 13.3 µM (active) in experiment [12], 1.03 µM (active) in experiment [3], 2.16 µM (active) in the experiment with Streptococcus and 5.96 µM (active) in [13].
Take `Cc1ccc(C)c(C(=O)CSc2nnc(C(C)C)[nH]2)c1`: the EC50 on Troponin, cardiac muscle was > 71.5 µM (inactive).
